Measured values reported in patent US8093260B2, “Aporphine derivatives and pharmaceutical use thereof” (Standard Chem. & Pharm. Co., Ltd., priority 2008, dated 2012).

What was measured:
[1] = test system: vascular smooth muscle cells of rats; assay: Protecting activity in vascular smooth muscle cells against H2O2 (MTT); format: cell-based, rat; conditions: compound 10 μM, 30 minutes before H2O2 200 μM, 24 hours, FIG. 3
Description: The vascular smooth muscle cells of rats (2×10^4 cells/mL×1 mL) were quantitatively seeded in 24-well plates, and cultured in Dulbecco's modified Eagle medium (DMEM) with 10% fetal bovine serum (FBS) for 24 hours to achieve cell adhesion. After cell adhesion, the DMEM medium with 10% fetal bovine serum was replaced with a fresh DMEM medium with 0.1% fetal bovine serum to perform cell culture for 48 hours.
Next, the test compounds were added in the cultures (final concentration: 0.1, 1, 10 μM). After 30 minutes, H2O2 (200 μM) was added therein to perform reaction for 24 hours in an incubator. Subsequently, in a light-proof environment, MTT (100 μL) was added into each well to perform reaction at 37° C. for 3 hours. The supernatant liquor was removed and then isopropanol (500 μL) was added, followed by shaking for 10 minutes. After standing for 10 minutes, supernatant liquor (200 μL) was transferred into 96-well plates. Finally, the absorbance values (O.D.) were monitored at 540 nm (OD540) and 630 nm (OD630). Based on the measured absorbance values (OD540-OD630), the effect of these test compounds on cell growth can be evaluated, as shown in FIG. 3.

lipid peroxidase = assay: Activity in inhibiting lipid peroxidase (malondialdehyde quantitation); format: biochemical, Dunkin Hartley Guinea pig; conditions: 10 μM; guinea pig liver microsomes; 20 minutes/37° C.
Description: The assay was executed with reference to the method described in Biochem Biophys Res Commun. 1986; 135(3): 1015-1021.
• (a) Source: Dunkin Hartley Guinea pig liver microsomes • (b) Substrate: Polyunsaturated fatty acid • (c) Vehicle: 1% DMSO • (d) Pre-Incubation Time/Temp: 15 minutes/37° C. • (e) Incubation Time/Temp: 20 minutes/37° C. • (f) Incubation Buffer: 0.25 M Potassium Phosphate, pH 7.4, 0.1 mM EDTA • (g) Quantitation Method: Spectrophotometric quantitation of Malondialdehyde

[2] = Free radical scavenging of AAPH (β-phycoerythrin fluorescence decay); format: biochemical; conditions: compound 5×10^−6 M, AAPH 25 mM, β-phycoerythrin 5 nM, FIG. 2
Source text: In order to evaluate the effect of test compounds in scavenging hydrophilic peroxy radical, the experiment was executed with reference to the method described by Tsuchiya et al. (Methods Enzymol 1992; 213: 460-472). In the experiment, peroxides will react with fluorescent substances and thus inflect observed fluorescence intensity. Thereby, the effect of test compounds in free radical scavenging can be evaluated by measuring the variation of the fluorescence intensity after the addition of test compounds.
First, to a silicate tube was added a phosphate solution (2 ml, pH 7.4), followed by the addition of β-phycoerythrin (5 nM) to increase relative fluorescence intensity. After 5 minutes, 2,2′-azobis(2-amidinopropane)dihydrochloride (25 mM, AAPH) was added therein. Subsequently, through a fluorescent spectrometry (Shimadzu RF-5301PC, Japan), the fluorescence intensity of β-phycoerythrin was measured by excitation at 540 nm and emission at 570 nm. Then, the test compounds (5×10^−6 M) was further added therein to observe the variation of the fluorescence intensity, in which 0.1% DMSO was taken as a control group.

| Inhibition (%) (lipid peroxidase) | SMILES | inhibition of H2O2 damage to vascular smooth muscle cells (cell viability, MTT) [1] | protection of β-phycoerythin from peroxy radical AAPH-induced damage (fluorescence decay) [2] |
| --- | --- | --- | --- |
| 64 | COc1cc2c(cc1OC)-c1c(O)c(OC)cc3c1C(C2)N(CC(O)COc1ccccc1OC)CC3 (stereo not drawn) [Compound 1] | significantly inhibit H2O2 to damage vascular smooth muscle cells | delay β-phycoerythin fluorescence degradation |
| 70 | COc1cc2c(cc1OC)-c1c(O)c(OC)cc3c1C(C2)N(CC(=O)Nc1c(C)cccc1C)CC3 (stereo not drawn) [Compound 2] | slightly inhibit H2O2 to damage vascular smooth muscle cells | delay β-phycoerythin fluorescence degradation |
